This note sets out measurements from patent publication US20240010684A1, “MASP INHIBITORY COMPOUNDS AND USES THEREOF” (BAYER AKTIENGESELLSCHAFT, priority 2020, published 2024).

Like-named read-outs stand apart in the source and are kept apart here. *1 amine or outer side, *2 acyl side, *3 side chain or, on linkers, in order; H or OH if unused. Where a SMILES comes first, the peptide text is derived from it. Bridges are numbered along the chain shown (N, C = ends). [ ]: non-standard residue; d: D form. X5 = NCCC[C@H](N[*:1])C(=O)NC(=O)[*:2]; Arg(Me) = CNC(=N)NCCC[C@H](N)C(=O)O; tBuAla = CC(C)(C)C[C@H](N)C(=O)O; Pen = CC(C)(S)[C@H](N)C(=O)O; Ahx = NCCCCCC(=O)O

The target of one assay is rat MASP1 (Rattus norvegicus (Rat), UniProt Q8CHN8). Briefly: Biochemical rat MASP1 assay (FRET substrate). From the text:
A truncated cDNA sequence of rat MASP1encoding the fragment corresponding to the amino acids 302-704 with a C-terminal His Tag and N-terminal Ig-kappa secretion signal (SEQ ID No: 4) was subcloned into the mammalian expression vector pcDNA3.1 (Invitrogen).
The MASP1 or MASP2 expression vectors were transfected into the HEK293 (ATCC No. CRL-1573) cell line using Lipofectamine LTX® Reagent (Thermo-Fischer), as described by the manufacturer. The mature form of the recombinant rat MASP1 and MASP2 proteases were secreted into the culture medium. The MASP1 and MASP2 proteins were purified from the conditioned media by affinity chromatography on Ni-NTA Superflow resin (Qiagen) as described by the manufacturer.
4.2 Biochemical Rat MASP1 Assay.
Recombinant rat MASP1 enzyme produced in the HEK 293 cells was diluted in the reaction buffer (50 mM HEPES pH 8,0; 100 mM NaCl; 0,01% CHAPS; 0.5 mM Gluthathione) to the concentration of 4 nM and 25 μl was transferred into each single well of 384-well white microtiter plate (Greiner Bio One 781075). 1 μl of the inhibitor compound solution (dissolved in DMSO, at the corresponding concentration) or pure DMSO as a control was added to the same wells. The enzymatic reaction was initiated by addition of 25 μl of 40 μM solution of the FRET substrate Dabcyl-[…]-Glu(Edans)-NH2; (Dabcyl-4-((4-(dimethylamino)phenyl)azo)benzoic acid; Edans-5-[(2-Aminoethyl) amino]naphthalene-1-sulfonyl; custom synthesis by Jerini Peptide Technologies, Berlin) in the reaction buffer. The microtiter plate was incubated for 60-120 min at the temperature of 32 C. The increase of fluorescence intensity was measured in appropriate fluorescence plate reader (e.g. TECAN Ultra) using excitation wavelength of 340 nm and emission wavelength of 490 nm. IC50 values were calculated from percentage of inhibition of rat […] activity as a function of test compound concentration.

The target in another assay is human MASP1 (Homo sapiens (Human), UniProt P48740). Briefly: Biochemical human MASP1 assay (FRET substrate). The method in brief:
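Recombinant human MASP1 (aa 297-699, C-terminal His tag, HEK293-expressed, Ni-NTA purified) diluted to 20 nM in 50 mM HEPES pH 8,0, 100 mM NaCl, 0,01% CHAPS, 0.5 mM glutathione, preincubated with compound in DMSO; reaction started with 20 μM ABZ/Dnp FRET substrate solution. Fluorescence (ex 320/em 420 nm) after 60-120 min at 32 C; IC50 from % inhibition.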

The target of another assay is rat MASP2 (Rattus norvegicus (Rat), UniProt Q9JJS8). As to the kind of experiment: Biochemical rat MASP2 assay (FRET substrate). From the text: The MASP1 or MASP2 expression vectors were transfected into the HEK293 (ATCC No. CRL-1573) cell line using Lipofectamine LTX® Reagent (Thermo-Fischer), as described by the manufacturer. […] The MASP1 and M[…] were purified from the conditioned media by affinity chromatography on Ni-NTA Superflow resin (Qiagen) as described by the manufacturer.

The target in another assay is human MASP2 (Homo sapiens (Human), UniProt O00187). As to the kind of experiment: Biochemical human MASP2 assay (FRET substrate). The method in brief: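 Mature recombinant human MASP2, expressed in HEK293 and purified by Ni-NTA affinity, was reacted with a DABCYL FRET peptide substrate (added as a 60 μM solution) for 60-120 min at 32 C. Fluorescence increase was read at ex 340/em 490 nm; IC50 was derived from % inhibition versus compound concentration.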

The test system of assay [1] is Human C3-DEPOSITION SERUM. Briefly: C3 deposition assay, human serum on mannan-coated plates. It counts as biochemical. In outline:
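Plates coated overnight at 4° C with S. cerevisiae mannan (10 μg/mL, pH 9.6), blocked with 1% BSA in TBS 2 h at 37° C; washes in TBS/0.05% Tween 20/5 mM CaCl2. Antibodies diluted in wash buffer with 0.5% BSA. Colorimetric read-out at 450 nm.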

Where [2] appears, read: Average IC50, recombinant rat MASP1, read-out: rat MASP1 IC50.
[3] abbreviates: Average IC50, recombinant human MASP1, read-out: human MASP1 IC50.
The mark [4] stands for this setting: Average IC50, recombinant rat MASP2, read-out: rat MASP2 IC50.
[5] abbreviates: Average IC50, recombinant human MASP2, read-out: human MASP2 IC50.
Setting [6] is: Average IC50, read-out: Human C3-DEPOSITION SERUM IC50.

Usually IC50 stands for the midpoint of a concentration-inhibition curve.

Chain of human MASP1 (P48740 other isoform, or with tags, fused parts or gaps): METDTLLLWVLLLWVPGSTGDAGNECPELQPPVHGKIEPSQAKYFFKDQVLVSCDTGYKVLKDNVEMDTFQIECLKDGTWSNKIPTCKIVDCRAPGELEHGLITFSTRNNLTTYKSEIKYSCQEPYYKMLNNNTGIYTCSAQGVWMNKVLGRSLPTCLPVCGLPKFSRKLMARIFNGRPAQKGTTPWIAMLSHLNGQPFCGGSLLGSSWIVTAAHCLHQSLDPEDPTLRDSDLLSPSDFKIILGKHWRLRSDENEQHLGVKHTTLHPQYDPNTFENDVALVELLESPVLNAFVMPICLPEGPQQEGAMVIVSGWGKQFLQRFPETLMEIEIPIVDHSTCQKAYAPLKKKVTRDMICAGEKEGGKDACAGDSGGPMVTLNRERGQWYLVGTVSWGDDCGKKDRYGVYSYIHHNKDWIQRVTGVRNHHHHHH
Chain of human MASP2 (O00187 other isoform, or with tags, fused parts or gaps): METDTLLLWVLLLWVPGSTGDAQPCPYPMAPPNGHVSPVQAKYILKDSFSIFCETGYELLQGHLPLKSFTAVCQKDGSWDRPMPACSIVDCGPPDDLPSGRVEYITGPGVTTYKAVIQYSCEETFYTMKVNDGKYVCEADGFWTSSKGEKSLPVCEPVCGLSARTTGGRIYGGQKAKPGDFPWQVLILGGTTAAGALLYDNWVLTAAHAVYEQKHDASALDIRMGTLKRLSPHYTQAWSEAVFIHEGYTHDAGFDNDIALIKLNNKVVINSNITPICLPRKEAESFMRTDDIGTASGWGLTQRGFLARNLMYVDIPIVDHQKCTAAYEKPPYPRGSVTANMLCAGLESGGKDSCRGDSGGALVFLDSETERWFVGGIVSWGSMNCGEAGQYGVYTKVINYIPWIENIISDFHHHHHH
Chain of rat MASP1 (Q8CHN8 other isoform, or with tags, fused parts or gaps): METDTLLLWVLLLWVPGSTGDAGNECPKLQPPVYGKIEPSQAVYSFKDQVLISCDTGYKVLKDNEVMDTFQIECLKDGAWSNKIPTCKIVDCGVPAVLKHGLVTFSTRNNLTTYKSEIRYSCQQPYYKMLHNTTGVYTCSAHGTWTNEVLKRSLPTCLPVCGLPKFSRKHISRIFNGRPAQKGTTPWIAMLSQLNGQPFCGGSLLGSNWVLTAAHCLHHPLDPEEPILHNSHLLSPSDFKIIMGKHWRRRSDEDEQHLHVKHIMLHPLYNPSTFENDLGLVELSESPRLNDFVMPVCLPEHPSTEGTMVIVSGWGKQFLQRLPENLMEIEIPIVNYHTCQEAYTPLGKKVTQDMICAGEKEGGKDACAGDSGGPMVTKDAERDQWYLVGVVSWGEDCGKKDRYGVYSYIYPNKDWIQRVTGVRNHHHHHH
Chain of rat MASP2 (Q9JJS8 other isoform, or with tags, fused parts or gaps): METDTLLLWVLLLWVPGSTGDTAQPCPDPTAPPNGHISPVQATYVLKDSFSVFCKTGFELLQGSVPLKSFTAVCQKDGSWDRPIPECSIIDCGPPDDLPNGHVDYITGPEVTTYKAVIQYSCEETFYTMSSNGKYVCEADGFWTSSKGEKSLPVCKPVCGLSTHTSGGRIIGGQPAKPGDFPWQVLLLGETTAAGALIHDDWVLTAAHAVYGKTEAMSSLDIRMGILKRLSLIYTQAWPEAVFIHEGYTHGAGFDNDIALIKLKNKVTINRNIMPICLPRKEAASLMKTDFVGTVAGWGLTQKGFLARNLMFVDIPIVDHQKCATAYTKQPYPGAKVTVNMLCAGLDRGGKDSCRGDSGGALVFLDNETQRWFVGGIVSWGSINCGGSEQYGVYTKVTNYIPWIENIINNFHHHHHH

In the case of `CC[C@H](C)[C@@H]1NC(=O)CNC(=O)CCCCCNC(=O)[C@H](CC(=O)O)NC(=O)[C@@H]2CCCN2C(=O)[C@H]([C@@H](C)CC)NC(=O)[C@H]2NC(=O)[C@H]([C@@H](C)CC)NC(=O)[C@@H]3CCCN3C(=O)[C@@H]3CCCN3C(=O)[C@H](CC(C)(C)C)NC(=O)[C@H](CO)NC(=O)[C@H](CCCNC(=N)N)NC(=O)[C@H](CO)NC(=O)[C@H](CSSC2(C)C)NC1=O` [Example 28] (cyclo([Ahx]GICSRS[tBuAla]PPI[Pen]IPD); disulfide 4-12), the IC50 is 0.079 µM on rat MASP1 (setting [2]), 0.019 µM on human MASP1 (setting [3]), 0.016 µM at rat MASP2 (setting [4]) and 0.029 µM at human MASP2 (setting [5]).

For the compound `CC[C@H](C)[C@@H]1NC(=O)[C@@H]2CCCN2C(=O)[C@@H]2CCCN2C(=O)[C@H](CC(C)(C)C)NC(=O)[C@H](CO)NC(=O)[C@H](CCCNC(=N)N)NC(=O)[C@H](CO)NC(=O)[C@@H]2CSSC(C)(C)[C@H](NC1=O)C(=O)N[C@@H]([C@@H](C)CC)C(=O)N1CCC[C@H]1C(=O)NCCCCCC(=O)NC[C@H]1CC[C@@H](CC1)C(=O)N[C@@H]([C@@H](C)CC)C(=O)N2` [Example 59, N-{3-[(1R,4S,7S,13S,19S,22S,25S,28S,31R,34S,37S,40S,51S,57S)-4,34,57-tri[(2S)-butan-2-yl]-19-(2,2-dimethylpropyl)-22,28-bis(hydroxymethyl)-60,60-dimethyl-3,6,12,18,21,24,27,30,33,36,43,50,56,59-tetradecaoxo-61,62-dithia-2,5,11,17,20,23,26,29,32,35,42,49,55,58-tetradecaazahexacyclo[29.28.4.2^37,400.0^7,110.0^13,170.0^51,55]pentahexacontan-25-yl]propyl}guanidine], the IC50 on rat MASP1 (setting [2]) came out at 0.0486 µM; on human MASP1 (setting [3]), 0.011 µM; in assay [1] (Average IC50, read-out: Human C3-[…] IC50) it was 0.177 µM; at human MASP2 (setting [5]) it was 0.0057 µM.

With `CC[C@H](C)[C@@H]1NC(=O)c2ccc(cc2)CNC(=O)CCCCCNC(=O)[C@@H]2CCCN2C(=O)[C@H]([C@@H](C)CC)NC(=O)[C@H]2NC(=O)[C@H]([C@@H](C)CC)NC(=O)[C@@H]3CCCN3C(=O)[C@@H]3CCCN3C(=O)[C@H](CC(C)(C)C)NC(=O)[C@H](CO)NC(=O)[C@H](CCCNC(=N)N)NC(=O)[C@H](CO)NC(=O)[C@H](CSSC2(C)C)NC1=O` [Example 68, N-{3-[(1R,4S,7S,13S,19S,22S,25S,28S,31R,34S,51S,57S)-4,34,57-tri[(2S)-butan-2-yl]-19-(2,2-dimethylpropyl)-22,28-bis(hydroxymethyl)-60,60-dimethyl-3,6,12,18,21,24,27,30,33,36,43,50,56,59-tetradecaoxo-61,62-dithia-2,5,11,17,20,23,26,29,32,35,42,49,55,58-tetradecaazahexacyclo[29.28.4.2^37,400.0^7,110.0^13,170.0^51,55]pentahexaconta-37,39,64-trien-25-yl]propyl}guanidine], the IC50 was 0.0308 µM at rat MASP1, 0.0061 µM at human MASP1, 0.00297 µM against rat MASP2 and 0.00257 µM on human MASP2.

As to `CC[C@H](C)[C@@H]1NC(=O)[C@H](C)NC(=O)CCCCCNC(=O)[C@H]([C@@H](C)CC)NC(=O)[C@H]2NC(=O)[C@H]([C@@H](C)CC)NC(=O)[C@@H]3CCCN3C(=O)[C@@H]3CCCN3C(=O)[C@H](CC(C)(C)C)NC(=O)[C@H](CO)NC(=O)[C@H](CCCNC(=N)N)NC(=O)[C@H](CO)NC(=O)[C@H](CSSC2(C)C)NC1=O` [Example 72, N-{3-[(5aS,11S,14S,17S,20S,23R,26S,29S,39S,42R,45S,47aS)-26,39,45-tri[(2S)-butan-2-yl]-11-(2,2-dimethylpropyl)-14,20-bis(hydroxymethyl)-29,48,48-trimethyl-5,10,13,16,19,22,25,28,31,38,41,44,47-tridecaoxohexatetracontahydro-5H-23,42-(methanodithiomethano)dipyrrolo[2,1-1:2′,1′-o][1,4,7,10,13,16,19,22,25,28,31,34,37]tridecaazacyclotritetracontin-17-yl]propyl}guanidine] (cyclo(AICSRS[tBuAla]PPI[Pen]I[Ahx]); disulfide 3-11), the IC50 on rat MASP1 (setting [2]) was determined as 0.085 µM; at human MASP1 (setting [3]), 0.0063 µM; at rat MASP2 (setting [4]) it was 0.014 µM; at human MASP2 (setting [5]), 0.048 µM.

For the compound `CC[C@H](C)[C@@H]1NC(=O)[C@@H]2CCCN2C(=O)[C@H]([C@@H](C)CC)NC(=O)[C@H]2NC(=O)[C@H]([C@@H](C)CC)NC(=O)[C@@H]3CCCN3C(=O)[C@@H]3CCCN3C(=O)[C@H](CC(C)(C)C)NC(=O)[C@H](CO)NC(=O)[C@H](CCCNC(=N)N)NC(=O)[C@H](CO)NC(=O)[C@H](CSSC2(C)C)NC1=O` [Example 88, N-{3-[(6S,9S,12S,15S,18R,21S,23aS,29S,32R,35S,37aS,42aS)-21,29,35-tri[(2S)-butan-2-yl]-6-(2,2-dimethylpropyl)-9,15-bis(hydroxymethyl)-43,43-dimethyl-5,8,11,14,17,20,23,28,31,34,37,42-dodecaoxotetracontahydro-1H,5H-18,32-(methanodithiomethano)tripyrrolo[1,2-a:1′,2′-d:1″,2″-p][1,4,7,10,13,16,19,22,25,28,31,34]-dodecaazacyclohexatriacontin-12-yl]propyl}guanidine hydrogen chloride] (cyclo(CSRS[tBuAla]PPI[Pen]IPI); disulfide 1-9), the IC50 on human MASP1 (setting [3]) is 1 µM; in assay [1] (setting [6]) it was 50 µM; on human MASP2 (setting [5]), 1 µM.

`CC[C@H](C)[C@@H]1NC(=O)NC(=O)[C@H](CCCN)NC(=O)[C@@H]2CCCN2C(=O)[C@H]([C@@H](C)CC)NC(=O)[C@H]2NC(=O)[C@H]([C@@H](C)CC)NC(=O)[C@@H]3CCCN3C(=O)[C@@H]3CCCN3C(=O)[C@H](CC(C)(C)C)NC(=O)[C@H](CO)NC(=O)[C@H](CCCNC(=N)NC)NC(=O)[C@H](CO)NC(=O)[C@H](CSSC2(C)C)NC1=O` [Example 96] (cyclo([Arg(Me)]S[tBuAla]PPI[Pen]IP[X5]ICS); disulfide 7-12): the 50% inhibitory concentration (IC50) on human MASP1 (setting [3]) is 0.023 µM; in assay [1] (setting [6]), 0.103 µM; at human MASP2 (setting [5]), 0.4 µM.

As to `CC[C@H](C)[C@@H]1NC(=O)[C@H](CN)NC(=O)[C@H](CN)NC(=O)[C@@H]2CCCN2C(=O)[C@H]([C@@H](C)CC)NC(=O)[C@H]2NC(=O)[C@H]([C@@H](C)CC)NC(=O)[C@@H]3CCCN3C(=O)[C@@H]3CCCN3C(=O)[C@H](CC(C)(C)C)NC(=O)[C@H](CO)NC(=O)[C@H](CCCNC(=N)N)NC(=O)[C@H](CO)NC(=O)[C@H](CSSC2(C)C)NC1=O` [Example 97], the values for the half-inhibitory concentration (IC50) (on human MASP1 (setting [3]); in assay [1] (setting [6]); at human MASP2 (setting [5])) were 0.005 µM, 0.0564 µM and 0.76 µM, respectively.

Regarding `CC[C@H](C)[C@@H]1NC(=O)[C@@H]2CSSC[C@H](NC(=O)[C@H](Cc3ccc(O)cc3)NC(=O)CNC(=O)[C@H](CC(=O)O)NC(=O)[C@@H]3CCCN3C1=O)C(=O)N[C@@H](CO)C(=O)N[C@@H](CCCNC(=N)N)C(=O)N[C@@H](CO)C(=O)N[C@@H](Cc1ccc(O)cc1)C(=O)N1CCC[C@H]1C(=O)N1CCC[C@H]1C(=O)N[C@@H](C(C)C)C(=O)N2` [Ref. No 8, reference compound] (cyclo(CIPDGYCSRSYPPV); disulfide 1-7), the IC50 at rat MASP1 (setting [2]) was determined as 1 µM; at human MASP1 (setting [3]) it was 8.13 µM; on rat MASP2 (setting [4]), 0.126 µM.
